# Reference: patent publication EP2785358B1, “INSULIN-MIMETICS AS THERAPEUTIC ADJUNCTS FOR BONE REGENERATION” (priority 2011, dated 2013)
# Read-outs that look alike come from different tables or passages of the source.
# What was measured:
# femur fractures [1] = conditions: four weeks post-fracture
# Description: X-rays are taken at two-week intervals to the day of euthanasia. After euthanasia x-rays are taken as well. To take x-rays, animals will be given a half dose of anesthesia. All groups will be monitored closely for four days after surgery for infection, and the ability to ambulate freely.
# femur fractures [2] = system: femur fractures
# Description: The fractured femora were resected at seven and ten days post-fracture, decalcified, dehydrated, embedded in paraffin, and sectioned using standard histological techniques. Sections were stained with Masson's Trichrome (Accustain™ Trichrome Staining kit, Sigma Diagnostics, St. Louis, MO) for histological observation using an Olympus BH2-RFCA microscope (Olympus Optical Co., Ltd., Shinjuku-ku, Tokyo, Japan). Digital images were collected using a Nikon DXM1200F digital camera (Nikon, Tokyo, Japan). Cartilage, new bone, and total callus area were measured from the digital images using Image-Pro Plus software (version 5, Media Cybernetics, Inc., Silver Spring, MD). Total cartilage and new bone area were normalized to total callus area and expressed as the percent area. Two independent reviewers were used to minimize inconsistencies.
# femur fractures [3] = system: femur fractures; design: Percent Effective Shear Modulus / Percent Effective Shear Stress: scale not given: direction of the effect not stated beside the values; conditions: no carrier, 4 weeks post-fracture; for Percent Effective Shear Modulus / Percent Effective Shear Stress / Percent Maximum Torque to Failure / Percent maximum torsional rigidity: normalized to intact femur
# Method: Torsional testing was conducted at 4 weeks post-fracture, using a servohydraulics machine (MTS Sys. Corp., Eden Prairie, MN) with a 20 Nm reaction torque cell (Interface, Scottsdale, AZ). Femurs were tested to failure at a rate of 2.0 deg/sec at four weeks post-fracture. […] In order to compare the biomechanical parameters between different groups, the data was normalized by dividing each fractured femur value by its corresponding intact, contralateral femur value. Torsional mechanical testing is limited by differences in gauge length during bone potting in Field's metal. Placement and dimension of fracture gap can contribute to standard deviations.
# [4] = manganese chloride 0.125 mg/kg, 7 days post fracture
# [5] = manganese chloride 0.125 mg/kg, 10 days post fracture
# [6] = manganese chloride 0.3 mg/kg, 7 days post fracture
# [7] = manganese chloride 0.3 mg/kg, 10 days post fracture
# [8] = manganese chloride 0.87 mg/kg, 7 days post fracture
# [9] = manganese chloride 0.87 mg/kg, 10 days post fracture
smiles,measurement,setting,value
"[Cl][Mn][Cl] [MnCl2, manganese chloride]",mineralized tissue on radiographs,femur fractures [1]; MnCl2 0.25 mg/kg,increased mineralized tissue than saline controls
same,union on radiographs,"femur fractures [1]; MnCl2 group, saline control had no evidence of union",union at the subperiosteal bony area and at the callus
same,% Cartilage,femur fractures [2]; [4],4.843 ± 2.3 n=6%
same,% new bone,femur fractures [2]; [4],15.518 ± 2.69 n=6%
same,% Cartilage,femur fractures [2]; [5],5.9 ± 4.47 n=5%
same,% new bone,femur fractures [2]; [5],14.69 ± 11.74 n=5%
same,% Cartilage,femur fractures [2]; [6],2.859 ± 1.09 n=7%
same,% new bone,femur fractures [2]; [6],15.604 ± 2.39 n=7%
same,% Cartilage,femur fractures [2]; [7],11.051 ± 3.05 n=9%
same,% new bone,femur fractures [2]; [7],"18.866 ± 2.28^∗,# n=9%"
same,% Cartilage,femur fractures [2]; [8],4.355 ± 3.99 n=3%
same,% new bone,femur fractures [2]; [8],16.492 ± 3.59 n=3%
same,% Cartilage,femur fractures [2]; [9],8.227 ± 2.24 n=3%
same,% new bone,femur fractures [2]; [9],15.948 ± 3.04 n=3%
same,Effective Shear Modulus,femur fractures [3]; MnCl2 0.083 mg/kg local,8.7×10^2 ± 4.9×10^2 MPa
same,Effective Shear Stress,femur fractures [3]; MnCl2 0.083 mg/kg local,30 ± 8 MPa
same,Maximum Torque to Failure,femur fractures [3]; MnCl2 0.083 mg/kg local,272 ± 39 Nmm
same,Maximum Torsional Rigidity,femur fractures [3]; MnCl2 0.083 mg/kg local,2.6×10^4 ± 1.2×10^4 Nmm^2/rad
same,Percent Effective Shear Modulus,femur fractures [3]; MnCl2 0.083 mg/kg local,8 ± 7%
same,Percent Effective Shear Stress,femur fractures [3]; MnCl2 0.083 mg/kg local,8 ± 4%
same,Percent Maximum Torque to Failure,femur fractures [3]; MnCl2 0.083 mg/kg local,42 ± 5%
same,Percent maximum torsional rigidity,femur fractures [3]; MnCl2 0.083 mg/kg local,56 ± 30%
same,Effective Shear Modulus,femur fractures [3]; MnCl2 0.125 mg/kg local,6.4×10^2 ± 8.8×10^1 MPa
same,Effective Shear Stress,femur fractures [3]; MnCl2 0.125 mg/kg local,21 ± 6 MPa
same,Maximum Torque to Failure,femur fractures [3]; MnCl2 0.125 mg/kg local,351 ± 59^∗ Nmm
same,Maximum Torsional Rigidity,femur fractures [3]; MnCl2 0.125 mg/kg local,4.2×10^4 ± 1.1×10^4 Nmm^2/rad
same,Percent Effective Shear Modulus,femur fractures [3]; MnCl2 0.125 mg/kg local,16 ± 11%
same,Percent Effective Shear Stress,femur fractures [3]; MnCl2 0.125 mg/kg local,14 ± 5%
same,Percent Maximum Torque to Failure,femur fractures [3]; MnCl2 0.125 mg/kg local,54 ± 5%
same,Percent maximum torsional rigidity,femur fractures [3]; MnCl2 0.125 mg/kg local,103 ± 40^∗ Percent
same,Effective Shear Modulus,femur fractures [3]; MnCl2 0.25 mg/kg local,8.1×10^2 ± 5.0×10^2 MPa
same,Effective Shear Stress,femur fractures [3]; MnCl2 0.25 mg/kg local,32 ± 11 MPa
same,Maximum Torque to Failure,femur fractures [3]; MnCl2 0.25 mg/kg local,344 ± 84^∗ Nmm
same,Maximum Torsional Rigidity,femur fractures [3]; MnCl2 0.25 mg/kg local,3.4×10^4 ± 1.6×10^4 Nmm^2/rad
same,Percent Effective Shear Modulus,femur fractures [3]; MnCl2 0.25 mg/kg local,14 ± 9%
same,Percent Effective Shear Stress,femur fractures [3]; MnCl2 0.25 mg/kg local,16 ± 6%
same,Percent Maximum Torque to Failure,femur fractures [3]; MnCl2 0.25 mg/kg local,55 ± 19%
same,Percent maximum torsional rigidity,femur fractures [3]; MnCl2 0.25 mg/kg local,80 ± 34^∗ Percent
same,Effective Shear Modulus,femur fractures [3]; MnCl2 0.30 mg/kg local,7.6×10^2 ± 9.2×10^2 MPa
same,Effective Shear Stress,femur fractures [3]; MnCl2 0.30 mg/kg local,27 ± 23 MPa
same,Maximum Torque to Failure,femur fractures [3]; MnCl2 0.30 mg/kg local,323 ± 135^∗ Nmm
same,Maximum Torsional Rigidity,femur fractures [3]; MnCl2 0.30 mg/kg local,3.0×10^4 ± 2.6×10^4 Nmm^2/rad
same,Percent Effective Shear Modulus,femur fractures [3]; MnCl2 0.30 mg/kg local,10 ± 12%
same,Percent Effective Shear Stress,femur fractures [3]; MnCl2 0.30 mg/kg local,16 ± 12%
same,Percent Maximum Torque to Failure,femur fractures [3]; MnCl2 0.30 mg/kg local,50 ± 22%
same,Percent maximum torsional rigidity,femur fractures [3]; MnCl2 0.30 mg/kg local,50 ± 37%
same,Effective Shear Modulus,femur fractures [3]; MnCl2 0.50 mg/kg local,6.2×10^2 ± 3.5×10^2 MPa
same,Effective Shear Stress,femur fractures [3]; MnCl2 0.50 mg/kg local,19 ± 9 MPa
same,Maximum Torque to Failure,femur fractures [3]; MnCl2 0.50 mg/kg local,230 ± 83 Nmm
same,Maximum Torsional Rigidity,femur fractures [3]; MnCl2 0.50 mg/kg local,2.9×10^4 ± 1.2×10^4 Nmm^2/rad
same,Percent Effective Shear Modulus,femur fractures [3]; MnCl2 0.50 mg/kg local,17 ± 13%
same,Percent Effective Shear Stress,femur fractures [3]; MnCl2 0.50 mg/kg local,14 ± 7%
same,Percent Maximum Torque to Failure,femur fractures [3]; MnCl2 0.50 mg/kg local,38 ± 15%
same,Percent maximum torsional rigidity,femur fractures [3]; MnCl2 0.50 mg/kg local,61 ± 16%
